The record followed here is US8598132B2, “Glycosylated indolocarbazoles, method for obtaining same and uses thereof” (Universidad de Oviedo, priority 2008, dated 2013).

Holding throughout (format): biochemical
Common to all, as to settings: read-out: remaining kinase activity (in %) / percentage of inhibition; for inhibition at 0.01 µM: compound at 10 nM; for inhibition at 0.1 µM: compound at 100 nM

Experiment [1] deals with T1, AmpKa1 (Homo sapiens, UniProt Q13131).
T1 construct: purchased Carna Biosciences
T1 sequence (Q13131 whole entry): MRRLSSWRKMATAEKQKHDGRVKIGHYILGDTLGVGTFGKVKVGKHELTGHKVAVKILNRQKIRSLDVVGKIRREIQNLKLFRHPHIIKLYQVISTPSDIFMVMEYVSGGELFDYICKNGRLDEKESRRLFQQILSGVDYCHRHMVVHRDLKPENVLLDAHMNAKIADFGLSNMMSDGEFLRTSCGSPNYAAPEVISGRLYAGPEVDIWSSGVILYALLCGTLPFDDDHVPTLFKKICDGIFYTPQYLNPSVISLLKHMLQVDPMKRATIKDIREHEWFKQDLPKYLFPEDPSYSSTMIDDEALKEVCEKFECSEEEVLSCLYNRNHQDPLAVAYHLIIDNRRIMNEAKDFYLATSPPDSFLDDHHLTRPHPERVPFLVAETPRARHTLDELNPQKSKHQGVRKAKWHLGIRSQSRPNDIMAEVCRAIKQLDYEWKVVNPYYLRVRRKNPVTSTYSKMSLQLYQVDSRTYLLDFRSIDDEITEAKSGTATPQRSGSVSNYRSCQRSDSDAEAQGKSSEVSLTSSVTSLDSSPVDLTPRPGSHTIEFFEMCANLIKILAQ
T1 sequence (Q9Y478 whole entry partner): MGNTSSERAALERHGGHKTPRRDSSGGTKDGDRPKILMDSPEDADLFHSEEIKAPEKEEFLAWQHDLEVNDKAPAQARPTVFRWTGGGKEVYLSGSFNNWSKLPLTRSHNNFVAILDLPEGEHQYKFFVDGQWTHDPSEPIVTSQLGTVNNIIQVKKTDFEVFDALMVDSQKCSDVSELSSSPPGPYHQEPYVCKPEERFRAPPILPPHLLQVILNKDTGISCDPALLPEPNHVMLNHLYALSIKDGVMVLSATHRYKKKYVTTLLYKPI
T1 sequence (P54619 whole entry partner): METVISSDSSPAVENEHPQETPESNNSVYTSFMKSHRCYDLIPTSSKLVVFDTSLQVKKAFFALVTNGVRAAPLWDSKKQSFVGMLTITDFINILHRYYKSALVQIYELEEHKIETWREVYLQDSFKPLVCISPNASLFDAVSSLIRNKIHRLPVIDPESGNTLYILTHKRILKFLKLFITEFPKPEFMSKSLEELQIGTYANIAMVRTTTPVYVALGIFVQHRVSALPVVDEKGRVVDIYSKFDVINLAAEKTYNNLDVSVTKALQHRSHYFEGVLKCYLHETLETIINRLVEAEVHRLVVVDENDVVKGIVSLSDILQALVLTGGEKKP
The experiment in a line: LabChip (Caliper) kinase assay, AmpKa1. The procedure:
(§1) The analysis of kinase activity described here was performed using LabChip (Caliper Life Sciences), specifically the Caliper LC3000 and the EZ Reader II instruments.
(§2) The kinase assay used measures the conversion of a fluorescent peptide (substrate) to a phosphorylated product. The reaction mixture, in a microplate well, is introduced by a capillary in a chip where the non-phosphorylated substrate and the phosphorylated product are separated by […]. The intensity of the fluorescent signal over time is related to the reaction progress. The phosphorylated product migrates quicker than the non-phosphorylated substrate and the signals of the two forms of the peptide appear as differentiated peaks. The Caliper determines the peak height and calculates the ratio of product to the peak sum (P/(P+S)). This value is used to compare wells with compounds and wells with controls and thus determine the % of inhibition for the given product.
(§3) The followings kinases were used for the enzymatic inhibition studies, between brackets the value of the Michaelis-Menten constant, Km, of the ATP (Adenosine triphosphate) for each kinase, in μM: obtained from Carna Biosciences: MAPKAPK2 (4.6), AurA (3.6), AurB (5), PKCζ (3.8), RSK1 (23.3), PRAK (5), Erk1 (33.4), PKD2 (32.1), CK1d (16.3), CHK1 (33), ABL (61.7), FYN (36), LYNa (17), CHK2 (57.8), MET (79.5), LCK (28.5), SRC (38), GSK3β (7.3), Erk2 (62.1), PKACα (1.7), AKT2 (186.1), INSR (871.8), p38a (396.5), AKT1(48), MSK1 (21.2), PKCβ2 (84.8), ROCK2 (3.3), PIM2 (4.9), AMPK (38.6), KDR (164.8), IRAK4 (196.5), SGK1 (121.8), SYK (33.5); obtained from Invitrogen: CDK2 (57.6), BTK (123), HGK (80); obtained from Upstate: MST2 (36.6), PKGα (16), PAK2 (1.9), IGF1R (320), FGFR1 (171), MARK1 (33), CAMK2δ (22.4), c-TAK1 (66), DYRK1a (18.1), CaMK4 (3.9), FLT3 (350), c-Raf (6.2), P70S6K (95).
(§4) The compounds were dissolved in 100% DMSO and were diluted at 25 times the final concentration desired for the assay. In the case of the determination of Cl50, serial dilutions were made to reach eight concentrations and give rise to the inhibition curve. 1 μL of each concentration is transferred, in duplicate to a 384-well microplate. 12 μL of enzymatic buffer is added to each well containing purified kinase (several suppliers as indicated above), 100 mM HEPES, pH 7.5, 1 mM DTT (Calbiochem), 0.002% Brij-35 (Sigma) and also in presence of 10 mM MgCl2 as cofactor, except for INSR and IRAK4 wherein 10 mM MnCl2 is used instead of MgCl2. For the kinases CAMK26 and CAMK4, 1 mM CaCl2 and 6.7 μg/mL of calmodulin are also added. For KDR kinase, 0.05% of the CHAPSO detergent is added. For the c-Raf kinase, 10 mM MnCl2 is added. For PKCβ2 0.02 μg/mL of PS/PMA is added. For PKGα se 10 μM of cGMP (cyclic guanosine monophosphate) is added. The compound and the enzyme are left for 15 minutes preincubation and, then, the following are added to each well: 12 μL of peptide buffer/ATP containing 100 mM HEPES, pH 7.5, 1.5 μM peptide marker with fluorescein (specific for the corresponding kinase), ATP (at concentration KM), and 0.002% Brij-35 to start the reaction. Generally, the reactions are incubated for 1-1.5 h at ambient temperature to obtain an adequate conversion (15-40%) of the peptide to the phosphorylated product. The reactions were ended by the addition of 45 μL of buffer containing 0 mM EDTA. The microplates were read by the LabChip 3000 using a 12-channel LabChip. The P/(P+S) values were obtained as described above and the CI50 curves were generated using XIfit. […]

Experiment [2] concerns the target T2, p38a (Homo sapiens, UniProt Q16539).
T2 construct: purchased Carna Biosciences
The experiment can be described thus: LabChip (Caliper) kinase assay, p38a. The procedure: as §1, §2, §3, §4

Experiment [3] has as its target T3, SGK1 (Homo sapiens, UniProt O00141).
T3 construct: purchased Carna Biosciences
T3 sequence (O00141 1-431): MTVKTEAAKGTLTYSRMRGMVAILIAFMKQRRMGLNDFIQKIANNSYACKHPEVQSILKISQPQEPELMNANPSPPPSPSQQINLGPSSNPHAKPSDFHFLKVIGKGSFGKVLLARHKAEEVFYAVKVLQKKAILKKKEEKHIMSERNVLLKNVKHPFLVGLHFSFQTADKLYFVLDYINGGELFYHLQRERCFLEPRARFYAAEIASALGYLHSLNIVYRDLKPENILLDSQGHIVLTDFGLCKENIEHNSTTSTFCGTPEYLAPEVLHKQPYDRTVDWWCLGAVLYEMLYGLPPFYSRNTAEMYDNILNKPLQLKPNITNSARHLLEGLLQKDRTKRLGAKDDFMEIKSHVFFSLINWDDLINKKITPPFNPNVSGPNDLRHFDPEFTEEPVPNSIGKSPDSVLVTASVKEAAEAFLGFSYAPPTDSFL
The experiment in a line: LabChip (Caliper) kinase assay, SGK1. The procedure:
as §1, §2, §3, §4

T2 sequence (Q16539 whole entry): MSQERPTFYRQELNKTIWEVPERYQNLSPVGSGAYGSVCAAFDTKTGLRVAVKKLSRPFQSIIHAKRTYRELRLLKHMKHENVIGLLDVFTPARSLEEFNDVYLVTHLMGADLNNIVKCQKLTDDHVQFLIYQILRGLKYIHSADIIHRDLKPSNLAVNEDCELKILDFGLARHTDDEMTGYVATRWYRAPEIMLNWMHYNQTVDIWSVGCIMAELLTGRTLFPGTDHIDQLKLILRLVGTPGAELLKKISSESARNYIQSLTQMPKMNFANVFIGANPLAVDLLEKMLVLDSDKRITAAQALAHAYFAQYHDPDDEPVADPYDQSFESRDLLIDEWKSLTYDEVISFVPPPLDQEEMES

Take `C[C@H]1O[C@@H](n2c3ccccc3c3c4c(c5c6ccccc6[nH]c5c32)CNC4=O)C[C@@H](O)[C@@H]1O` [formula (XV), N^13-1′-β-D-olivosyl-k252c]: the results for the inhibition at 0.01 µM in experiment [1], in experiment [2] and in experiment [3] were -3%, -1% and 9%, respectively. The inhibition at 0.1 µM was 9% in experiment [1], -3% in experiment [2] and 12% in experiment [3].

On to `C[C@@H]1O[C@@H](n2c3ccccc3c3c4c(c5c6ccccc6[nH]c5c32)CNC4=O)[C@H](O)[C@H](O)[C@H]1O` [formula (XII), N^13-1′-β-L-rhamnosyl-k252c], for which the inhibition at 0.01 µM in experiment [1] is 1%; in experiment [2], -1%; in experiment [3], 7%. In addition, the results for the inhibition at 0.1 µM in experiment [1], in experiment [2] and in experiment [3] were 7%, 0% and 6%, respectively.

For `C[C@H]1O[C@@H](n2c3ccccc3c3c4c(c5c6ccccc6[nH]c5c32)C(=O)NC4=O)C[C@@H](O)[C@@H]1O` [formula (VI), N^13-1′-β-D-olivosylarcyriaflavin], the inhibition at 0.01 µM is 5% in experiment [1], -1% in experiment [2] and 12% in experiment [3]. The inhibition at 0.1 µM in experiment [1] was 33%; in experiment [2], -1%; in experiment [3], 27%.

With `C[C@@H]1O[C@@H](n2c3ccccc3c3c4c(c5c6ccccc6[nH]c5c32)C(=O)NC4=O)C[C@H](O)[C@H]1O` [formula (IV), N^13-1′-β-L-olivosylarcyriaflavin], the inhibition at 0.01 µM in experiment [1] was 3%; in experiment [2], -2%; in experiment [3], 9%. Further, the results for the inhibition at 0.1 µM in experiment [1], in experiment [2] and in experiment [3] were 21%, -2% and 17%, respectively.

Consider `C[C@@H]1O[C@@H](n2c3ccccc3c3c4c(c5c6ccccc6[nH]c5c32)CNC4=O)C[C@@H](O)[C@H]1O` [formula (XIV), N^13-1′-β-L-digitoxosyl-k252c], for which the inhibition at 0.01 µM is 2% in experiment [1], -1% in experiment [2] and 6% in experiment [3]. The inhibition at 0.1 µM in experiment [1] was 1%; in experiment [2], -2%; in experiment [3], 14%.

As for `C[C@@H]1O[C@@H](n2c3ccccc3c3c4c(c5c6ccccc6[nH]c5c32)C(=O)NC4=O)C[C@@H](O)[C@H]1O` [formula (V), N^13-1′-β-L-digitoxosylarcyriaflavin], the values for the inhibition at 0.01 µM in experiment [1], in experiment [2] and in experiment [3] were 8%, 1% and 17%, respectively. In addition, the inhibition at 0.1 µM was 28% in experiment [1], -2% in experiment [2] and 37% in experiment [3].

For `C[C@@H]1O[C@@H](n2c3ccccc3c3c4c(c5c6ccccc6[nH]c5c32)CNC4=O)C[C@H](O)[C@H]1O` [formula (XIII), N^13-1′-β-L-olivosyl-k252c], the inhibition at 0.01 µM in experiment [1] is -3%; in experiment [2], -2%; in experiment [3], 8%. The figures for the inhibition at 0.1 µM in experiment [1], in experiment [2] and in experiment [3] were 10%, -3% and 15%, respectively.

Turning to `C[C@@H]1O[C@@H](n2c3ccccc3c3c4c(c5c6ccccc6[nH]c5c32)C(=O)NC4=O)[C@H](O)[C@H](O)[C@H]1O` [formula (III), N^13-1′-β-L-rhamnosylarcyriaflavin], the inhibition at 0.01 µM came out at 1% in experiment [1], 0% in experiment [2] and 8% in experiment [3]. In addition, the values for the inhibition at 0.1 µM in experiment [1], in experiment [2] and in experiment [3] were 11%, -1% and 13%, respectively.
